Reference: patent US9084546B2, “Co-electrodeposited hydrogel-conducting polymer electrodes for biomedical applications” (The Regents of the University of Michigan, priority 2005, dated 2015)

Key:
[1] = test system: MCC (mouse primary cortical cultures); test: Cytotoxicity dose-response of EDOT monomer with PSS dopant (cell viability); assay type: cell-based; conditions: MCC exposed to as much as 0.01 M EDOT, 0.02M PSS for as long as 72 h
Description: (§1) Materials and Methods: SH-SY5Y neuroblastoma-derived cells were maintained in Dulbecco's Modified-Eagle's Media (DMEM with glucose, with L-glutamine; Gibco/Invitrogen, Carlsbad, Calif.) supplemented with Penn-Strep mixed antibiotic solution (dilute 1:100 in cell media; Gibco/Invitrogen) and 10% fetal bovine serum (FBS; Gibco/Invitrogen). Mouse primary dissociated cortical cultures (MCC) were prepared from embryonic day 18-20 (E18-20) mice. […]
(§2) Cell Viability Assays: Cell viability was assessed using three assays; the Vybrant Live/Dead Assay (Molecular Probes), the MTT cell viability assay (Chemicon, Temecula, Calif.), and immunocytochemistry (ICC) for the apoptosis associated protease, activated caspase 3 (Cell Signaling Technologies, Beverly, Mass.). For Vybrant Live/Dead assay cell quantity, size, and type of nuclear staining intensity were assessed by fluorescence microscopy using 3 different dyes, Hoechst 33342 (labels all cell nuclei but brighter in nuclei of apoptotic cells), YoPro-3 (labels apoptotic cells) and propidium iodide (PI) (labels cells with compromised membrane; apoptotic & necrotic cells). […]

SY5Y cells = test: as above; assay type: cell-based; conditions: SY5Y cells exposed to as much as 0.01 M EDOT, 0.02M PSS for as long as 72 h
Description: as §1, §2

SMILES: c1scc2c1OCCO2 [EDOT, 3,4-ethylenedioxythiophene]
- cell viability [1]: at least 75%
- cell viability (SY5Y cells): at least 75%
